Source: publication PMC9900903 (bioRxiv, 2023)
Like-named read-outs stand apart in the source and are kept apart here.

Tests used:
Aap lectin domain = target: T1, Aap lectin domain (Staphylococcus epidermidis, UniProt Q5HKE8); experiment: ITC; format: binding; details: pH 7.2, 50 mM phosphate, 150 mM NaCl, 25 °C
T1 sequence (Q5HKE8 351-605): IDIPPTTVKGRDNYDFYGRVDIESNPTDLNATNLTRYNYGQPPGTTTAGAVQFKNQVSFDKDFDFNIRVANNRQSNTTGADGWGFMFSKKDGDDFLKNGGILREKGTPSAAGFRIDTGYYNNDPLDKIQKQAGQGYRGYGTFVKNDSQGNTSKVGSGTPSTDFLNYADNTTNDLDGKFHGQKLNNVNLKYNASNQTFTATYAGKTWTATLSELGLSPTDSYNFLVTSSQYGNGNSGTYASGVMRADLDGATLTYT

SasG lectin domain = target: T2, SasG lectin domain (Staphylococcus aureus, UniProt Q2G2B2); experiment: ITC; format: binding; details: pH 7.2, 50 mM phosphate, 150 mM NaCl, 25 °C
T2 sequence (Q2G2B2 163-419): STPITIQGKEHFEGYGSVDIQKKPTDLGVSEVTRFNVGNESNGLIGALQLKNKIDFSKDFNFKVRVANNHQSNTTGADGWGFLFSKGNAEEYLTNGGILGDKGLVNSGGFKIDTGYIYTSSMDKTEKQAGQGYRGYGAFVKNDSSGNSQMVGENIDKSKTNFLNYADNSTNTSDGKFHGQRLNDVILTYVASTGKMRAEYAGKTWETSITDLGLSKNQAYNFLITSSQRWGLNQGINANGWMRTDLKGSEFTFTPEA

| Structure (SMILES) | Kd (Aap lectin domain) [µM] | ITC (SasG lectin domain) | Kd (Aap lectin domain; read-out: affinity) [µM] |
| --- | --- | --- | --- |
| CC(=O)N[C@H]1[C@H]([C@H](O)[C@H](O)CO)O[C@@](O[C@H]2[C@@H](O)[C@@H](CO)O[C@@H](O[C@H]3[C@H](O)[C@@H](NC(C)=O)C(O)O[C@@H]3CO)[C@@H]2O)(C(=O)O)C[C@@H]1O (stereo partly drawn) [3'-sialyl-N-acetyllactosamine] | 13 | – | – |
| CC(=O)N[C@H]1C(O)O[C@H](CO)[C@@H](O[C@@H]2O[C@H](CO)[C@H](O)[C@H](O)[C@H]2O)[C@@H]1O (stereo partly drawn) [N-acetyllactosamine] | – | We confirmed that SasG lectin is able to bind N-acetyllactosamine by ITC | ~130 |
